# Test results as given in ChEMBL document CHEMBL5543112, “Discovery of CBPD-268 as an Exceptionally Potent and Orally Efficacious CBP/p300 PROTAC Degrader Capable of Achieving Tumor Regression” (J Med Chem, 2024).
# Key:
# [1] = Metabolic stability in rat liver microsome assessed as half life measured upto 60 mins in presence of NADPH by LC-MS/MS analysis; assay type: ADME; settings: liver microsomes
# [2] = system: LNCaP; test: Antiproliferative activity against human LNCaP cells assessed as cell growth inhibition incubated for 4 days by celtiter-glo luminescent assay; settings: 96 h
# [3] = Half life in Sprague-Dawley rat at 1 mg/kg, iv measured upto 24 hrs by LC/MS-MS analysis; assay type: ADME, organism-based; settings: in vivo
# [4] = Cmax in Sprague-Dawley rat at 3 mg/kg, po measured upto 24 hrs by LC/MS-MS analysis; assay type: ADME, organism-based; settings: in vivo
# [5] = Cmax in ICR mouse at 3 mg/kg, po measured upto 24 hrs by LC/MS-MS analysis; assay type: ADME, organism-based; settings: in vivo
# [6] = Metabolic stability in monkey plasma assessed as half life measured upto 120 mins by LC-MS/MS analysis; assay type: ADME, cell-free, Macaca mulatta; settings: rhesus monkey
# [7] = Plasma protein binding in monkey by LC-MS analysis; assay type: ADME, cell-free, Macaca mulatta; settings: rhesus monkey, read-out: PPB (converted)
# [8] = biological target: T1, Cytochrome P450 2B6 (Homo sapiens, UniProt P20813); test: Inhibition of CYP2B6 (unknown origin) preincubated with compound for 5 mins followed by NADPH addition and measured after 10 mins by LC-MS/MS analysis; assay type: ADME
# T1 sequence (P20813 whole entry): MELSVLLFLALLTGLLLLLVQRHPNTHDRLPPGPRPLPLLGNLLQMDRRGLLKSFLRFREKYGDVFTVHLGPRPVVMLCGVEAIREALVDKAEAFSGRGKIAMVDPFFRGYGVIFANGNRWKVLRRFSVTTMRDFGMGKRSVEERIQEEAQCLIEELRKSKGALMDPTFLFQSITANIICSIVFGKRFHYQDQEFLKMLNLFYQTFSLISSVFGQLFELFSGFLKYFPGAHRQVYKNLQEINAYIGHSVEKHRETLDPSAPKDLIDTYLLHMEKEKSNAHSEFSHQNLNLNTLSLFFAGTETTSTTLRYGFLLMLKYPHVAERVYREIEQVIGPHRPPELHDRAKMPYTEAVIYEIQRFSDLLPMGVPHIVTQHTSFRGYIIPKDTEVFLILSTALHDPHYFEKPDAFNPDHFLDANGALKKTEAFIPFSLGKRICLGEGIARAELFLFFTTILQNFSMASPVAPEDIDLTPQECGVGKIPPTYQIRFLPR
# [9] = biological target: Cytochrome P450 2C9 (Homo sapiens, UniProt P11712); test: Inhibition of CYP2C9 (unknown origin) preincubated with compound for 5 mins followed by NADPH addition and measured after 10 mins by LC-MS/MS analysis; assay type: ADME
# [10] = biological target: Cytochrome P450 2C19 (Homo sapiens, UniProt P33261); test: Inhibition of CYP2C19 (unknown origin) preincubated with compound for 5 mins followed by NADPH addition and measured after 45 mins by LC-MS/MS analysis; assay type: ADME
# [11] = Drug distribution in SCID mouse plasma at 0.3 mg/kg, po measured at 6 hrs by LC-MS/MS analysis; assay type: ADME, organism-based
# [12] = Drug distribution in SCID mouse plasma at 1 mg/kg, po measured at 24 hrs by LC-MS/MS analysis; assay type: ADME, organism-based
# [13] = Drug distribution in SCID mouse plasma at 3 mg/kg, po measured at 1 hr by LC-MS/MS analysis; assay type: ADME, organism-based
# [14] = Drug distribution in SCID mouse tumor at 3 mg/kg, po measured at 1 hr by LC-MS/MS analysis; assay type: ADME, organism-based, Neoplasm; settings: read-out: Ct
# [15] = Drug distribution in SCID mouse liver at 0.3 mg/kg, po measured at 1 hr by LC-MS/MS analysis; assay type: ADME, organism-based; settings: read-out: Ct
# [16] = Drug distribution in SCID mouse liver at 3 mg/kg, po measured at 24 hrs by LC-MS/MS analysis; assay type: ADME, organism-based; settings: read-out: Ct
# [17] = Drug distribution in SCID mouse spleen at 0.3 mg/kg, po measured at 6 hrs by LC-MS/MS analysis; assay type: ADME, organism-based; settings: read-out: Ct
# [18] = Drug distribution in SCID mouse spleen at 1 mg/kg, po measured at 6 hrs by LC-MS/MS analysis; assay type: ADME, organism-based; settings: read-out: Ct
# [19] = Drug concentration in SCID mouse plasma at 1 mg/kg, po measured at 24 hrs by LC-MS/MS analysis; assay type: ADME, organism-based
# [20] = Drug concentration in SCID mouse tumor at 1 mg/kg, po measured at 24 hrs by LC-MS/MS analysis; assay type: ADME, organism-based, Neoplasm; settings: read-out: Ct
# [21] = system: VCaP; test: Antitumor activity against human VCaP cells xenografted in SCID mouse assessed as tumor regression at 1 mg/kg, po administered 3 times a week for 4 weeks; assay type: functional
# [22] = Toxicity in SCID mouse xenografted with human VCaP cells assessed as loss of body weight at 1 to 3 mg/kg, po measured up to 48 days; assay type: organism-based; settings: in vivo, 1152 h, dose 1-3 mg/kg, time < 48 day
# [23] = system: CWR22R; test: Antitumor activity against human 22Rv1 cells xenografted in SCID mouse assessed as tumor growth inhibition at 1 mg/kg, po administered 3 times a week for 3 weeks; assay type: functional; settings: 22Rv1, 504 h, read-out: TGI
# [24] = Drug distribution in Sprague-Dawley rat kidney at 3 mg/kg, po measured at 6 hrs by LC-MS/MS analysis; assay type: ADME, organism-based; settings: read-out: Ct
# [25] = Drug distribution in Sprague-Dawley rat kidney at 10 mg/kg, po measured at 6 hrs by LC-MS/MS analysis; assay type: ADME, organism-based; settings: read-out: Ct
# [26] = Drug distribution in Sprague-Dawley rat liver at 3 mg/kg, po measured at 1 hr by LC-MS/MS analysis; assay type: ADME, organism-based; settings: read-out: Ct
# [27] = Drug distribution in Sprague-Dawley rat liver at 3 mg/kg, po measured at 24 hrs by LC-MS/MS analysis; assay type: ADME, organism-based; settings: read-out: Ct
# [28] = Drug distribution in Sprague-Dawley rat spleen at 3 mg/kg, po measured at 1 hr by LC-MS/MS analysis; assay type: ADME, organism-based; settings: read-out: Ct
# [29] = Drug distribution in Sprague-Dawley rat heart at 3 mg/kg, po measured at 6 hrs by LC-MS/MS analysis; assay type: ADME, organism-based; settings: read-out: Ct
# [30] = biological target: Protein cereblon/Histone lysine acetyltransferase CREBBP (Rattus norvegicus, UniProt Q56AP7+Q6JHU9); test: PROTAC activity at CBP/CRBN in rat RG2 cells assessed as induction of CBP degradation; assay type: cell-based
# [31] = Toxicity in immune-competent Sprague-Dawley rat assessed as change in monocyte at 1 to 10 mg/kg, po administered twice a week for 5 weeks; assay type: organism-based; settings: in vivo, 840 h, dose 1-10 mg/kg
# [32] = Toxicity in immune-competent Sprague-Dawley rat assessed as change in creatinine level at 1 to 10 mg/kg, po administered twice a week for 5 weeks; assay type: organism-based; settings: in vivo, 840 h, dose 1-10 mg/kg
# [33] = Toxicity in immune-competent Sprague-Dawley rat assessed as change in alanine aminotransferase level at 1 to 10 mg/kg, po administered twice a week for 5 weeks; assay type: organism-based; settings: in vivo, 840 h, dose 1-10 mg/kg
# [34] = Toxicity in immune-competent Sprague-Dawley rat assessed as change in total bilirubin level at 1 to 10 mg/kg, po administered twice a week for 5 weeks; assay type: organism-based; settings: in vivo, 840 h, dose 1-10 mg/kg
# [35] = Toxicity in immune-competent Sprague-Dawley rat assessed as decrease in glucose level at 10 mg/kg, po administered twice a week for 5 weeks; assay type: organism-based; settings: in vivo, 840 h
# Cytochrome P450 2C19, sequence (P33261 whole entry): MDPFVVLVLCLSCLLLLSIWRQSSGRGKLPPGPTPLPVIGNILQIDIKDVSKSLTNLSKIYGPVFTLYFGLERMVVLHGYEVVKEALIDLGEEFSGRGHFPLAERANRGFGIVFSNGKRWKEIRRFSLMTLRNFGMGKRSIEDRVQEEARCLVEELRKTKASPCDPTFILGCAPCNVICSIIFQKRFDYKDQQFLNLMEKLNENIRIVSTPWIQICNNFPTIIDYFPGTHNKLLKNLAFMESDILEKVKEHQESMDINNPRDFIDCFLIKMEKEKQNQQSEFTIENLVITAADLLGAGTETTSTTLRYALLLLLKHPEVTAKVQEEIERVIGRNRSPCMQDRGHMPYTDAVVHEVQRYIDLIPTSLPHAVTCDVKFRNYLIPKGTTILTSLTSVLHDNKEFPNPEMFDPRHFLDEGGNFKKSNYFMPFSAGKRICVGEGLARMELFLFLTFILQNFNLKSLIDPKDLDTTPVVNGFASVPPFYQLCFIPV
# Cytochrome P450 2C9, sequence (P11712 whole entry): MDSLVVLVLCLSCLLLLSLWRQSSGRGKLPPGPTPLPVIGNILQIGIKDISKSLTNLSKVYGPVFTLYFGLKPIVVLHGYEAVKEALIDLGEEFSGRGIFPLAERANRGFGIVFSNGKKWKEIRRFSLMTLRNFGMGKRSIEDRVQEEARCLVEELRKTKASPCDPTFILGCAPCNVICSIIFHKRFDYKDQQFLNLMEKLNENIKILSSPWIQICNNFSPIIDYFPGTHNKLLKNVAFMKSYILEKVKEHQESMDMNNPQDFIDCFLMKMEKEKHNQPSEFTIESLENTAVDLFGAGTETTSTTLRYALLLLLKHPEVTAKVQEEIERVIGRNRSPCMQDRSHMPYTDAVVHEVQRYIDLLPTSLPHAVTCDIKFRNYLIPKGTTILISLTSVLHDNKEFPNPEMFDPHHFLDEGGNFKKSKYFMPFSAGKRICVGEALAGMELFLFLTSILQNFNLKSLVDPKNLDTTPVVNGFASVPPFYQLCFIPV
# Protein cereblon/Histone lysine acetyltransferase CREBBP, sequence (Q56AP7 whole entry): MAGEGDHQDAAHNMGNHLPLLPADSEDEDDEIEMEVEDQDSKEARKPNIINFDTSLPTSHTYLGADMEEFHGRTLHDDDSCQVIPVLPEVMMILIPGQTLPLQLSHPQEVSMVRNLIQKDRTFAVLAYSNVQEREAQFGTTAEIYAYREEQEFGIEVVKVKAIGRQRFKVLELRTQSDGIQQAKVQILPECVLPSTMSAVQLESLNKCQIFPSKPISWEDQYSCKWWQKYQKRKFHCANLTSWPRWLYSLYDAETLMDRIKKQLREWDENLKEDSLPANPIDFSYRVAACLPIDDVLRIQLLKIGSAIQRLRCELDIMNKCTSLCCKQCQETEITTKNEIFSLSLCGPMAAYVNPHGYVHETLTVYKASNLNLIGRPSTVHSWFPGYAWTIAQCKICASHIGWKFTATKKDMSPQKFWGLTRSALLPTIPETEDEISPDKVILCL
# Protein cereblon/Histone lysine acetyltransferase CREBBP, sequence (Q6JHU9 whole entry): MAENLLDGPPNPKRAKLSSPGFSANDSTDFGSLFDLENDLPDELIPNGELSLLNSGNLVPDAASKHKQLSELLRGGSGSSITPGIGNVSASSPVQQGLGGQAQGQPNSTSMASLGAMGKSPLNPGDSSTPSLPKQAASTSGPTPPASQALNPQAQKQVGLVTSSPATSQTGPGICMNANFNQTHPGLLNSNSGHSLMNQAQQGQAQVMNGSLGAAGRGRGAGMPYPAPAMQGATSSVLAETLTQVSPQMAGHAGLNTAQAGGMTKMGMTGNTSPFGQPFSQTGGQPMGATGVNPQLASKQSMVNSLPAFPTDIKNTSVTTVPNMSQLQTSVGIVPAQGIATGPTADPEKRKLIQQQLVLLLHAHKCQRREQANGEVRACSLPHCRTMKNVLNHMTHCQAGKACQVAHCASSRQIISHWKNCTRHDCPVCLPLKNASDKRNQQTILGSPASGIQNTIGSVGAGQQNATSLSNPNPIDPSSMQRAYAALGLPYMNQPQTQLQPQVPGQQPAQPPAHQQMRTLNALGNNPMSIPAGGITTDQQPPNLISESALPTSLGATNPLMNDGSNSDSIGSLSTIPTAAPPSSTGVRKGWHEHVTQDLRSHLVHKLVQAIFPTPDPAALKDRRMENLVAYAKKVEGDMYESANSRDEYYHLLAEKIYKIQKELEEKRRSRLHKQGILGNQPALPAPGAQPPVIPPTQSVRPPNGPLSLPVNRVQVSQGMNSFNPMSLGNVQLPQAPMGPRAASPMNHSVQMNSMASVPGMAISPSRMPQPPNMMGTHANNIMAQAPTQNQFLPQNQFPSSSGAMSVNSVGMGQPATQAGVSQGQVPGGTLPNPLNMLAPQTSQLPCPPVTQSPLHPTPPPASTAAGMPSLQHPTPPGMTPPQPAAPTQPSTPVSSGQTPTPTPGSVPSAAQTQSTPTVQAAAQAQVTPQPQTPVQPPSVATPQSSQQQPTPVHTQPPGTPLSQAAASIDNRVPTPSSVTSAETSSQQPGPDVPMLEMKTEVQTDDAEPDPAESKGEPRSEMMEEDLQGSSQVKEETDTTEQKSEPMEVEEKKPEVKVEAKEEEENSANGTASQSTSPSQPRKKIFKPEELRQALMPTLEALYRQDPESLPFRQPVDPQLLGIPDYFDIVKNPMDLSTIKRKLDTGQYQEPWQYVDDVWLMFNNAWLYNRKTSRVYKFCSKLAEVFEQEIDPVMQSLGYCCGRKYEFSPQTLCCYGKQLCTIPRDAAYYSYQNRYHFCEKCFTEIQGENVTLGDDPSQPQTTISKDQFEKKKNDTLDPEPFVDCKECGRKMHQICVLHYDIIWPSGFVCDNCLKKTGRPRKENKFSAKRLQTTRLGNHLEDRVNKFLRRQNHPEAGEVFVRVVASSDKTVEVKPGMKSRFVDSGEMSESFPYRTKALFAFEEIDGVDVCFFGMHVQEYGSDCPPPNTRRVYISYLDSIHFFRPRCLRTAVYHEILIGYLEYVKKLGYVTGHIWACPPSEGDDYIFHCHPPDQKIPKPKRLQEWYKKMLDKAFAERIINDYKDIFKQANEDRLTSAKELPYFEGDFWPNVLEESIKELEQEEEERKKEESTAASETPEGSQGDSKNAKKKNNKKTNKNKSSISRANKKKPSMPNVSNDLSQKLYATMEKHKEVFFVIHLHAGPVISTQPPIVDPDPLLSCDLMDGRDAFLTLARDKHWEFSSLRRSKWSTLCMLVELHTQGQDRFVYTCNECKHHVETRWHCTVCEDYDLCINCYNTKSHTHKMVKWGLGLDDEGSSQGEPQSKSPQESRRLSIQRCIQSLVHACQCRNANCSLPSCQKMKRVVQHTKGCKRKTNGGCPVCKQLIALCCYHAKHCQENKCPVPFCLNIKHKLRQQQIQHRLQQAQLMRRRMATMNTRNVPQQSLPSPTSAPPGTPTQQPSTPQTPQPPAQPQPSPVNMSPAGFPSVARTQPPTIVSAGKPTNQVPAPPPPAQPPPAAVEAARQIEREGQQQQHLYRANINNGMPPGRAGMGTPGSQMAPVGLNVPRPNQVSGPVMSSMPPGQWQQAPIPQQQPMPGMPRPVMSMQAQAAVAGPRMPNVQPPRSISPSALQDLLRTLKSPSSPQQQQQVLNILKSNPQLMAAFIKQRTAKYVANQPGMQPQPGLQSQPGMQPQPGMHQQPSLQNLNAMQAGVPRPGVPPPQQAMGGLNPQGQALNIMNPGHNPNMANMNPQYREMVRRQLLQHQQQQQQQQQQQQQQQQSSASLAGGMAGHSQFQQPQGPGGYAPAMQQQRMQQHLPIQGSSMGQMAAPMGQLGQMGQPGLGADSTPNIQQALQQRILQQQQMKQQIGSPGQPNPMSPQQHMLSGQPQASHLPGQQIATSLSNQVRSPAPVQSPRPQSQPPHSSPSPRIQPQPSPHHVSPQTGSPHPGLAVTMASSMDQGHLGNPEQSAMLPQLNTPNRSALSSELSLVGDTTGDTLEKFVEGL
smiles,measurement,setting,value
CC(=O)N1CCc2c(c(N3CCCc4cc(-c5cnn(C)c5)c(C(F)F)cc43)nn2[C@H]2CC[C@H](CN3Cc4cc5c(cc4C3)C(=O)N(C3CCC(=O)NC3=O)C5=O)CC2)C1 (stereo not given in full),half-life,[1],1.08 h
same,IC50,[2],10.3 nM
same,half-life,[3],1.9 h
same,Cmax,[4],221 ng/mL
same,Cmax,[5],725 ng/mL
same,half-life,[6],> 2 h
same,fraction unbound,[7],0.009
same,IC50,[8],> 10000 nM
same,IC50,[9],> 10000 nM
same,IC50,[10],> 10000 nM
same,concentration at 6 h,[11],12.7 ng/mL
same,concentration at 24 h,[12],3.3 ng/mL
same,concentration at 1 h,[13],747 ng/mL
same,concentration at 1 h,[14],249 ng/g
same,concentration at 1 h,[15],323 ng/mL
same,concentration at 24 h,[16],61.1 ng/mL
same,concentration at 6 h,[17],27.4 ng/mL
same,concentration at 6 h,[18],127 ng/mL
same,concentration at 24 h,[19],2.8 ng/mL
same,concentration at 24 h,[20],6.3 ng/g
same,Activity,[21],31%
same,Activity,[22],< 7%
same,inhibition in vivo at 1 mg/kg,[23],54%
same,concentration at 6 h,[24],59.2 ng/g
same,concentration at 6 h,[25],224 ng/g
same,concentration at 1 h,[26],978 ng/g
same,concentration at 24 h,[27],8.4 ng/g
same,concentration at 1 h,[28],832 ng/g
same,concentration at 6 h,[29],26.4 ng/g
same,DC50,[30],0.1 nM
same,Activity,[31],Non-Toxic
same,Activity,[32],Non-Toxic
same,Activity,[33],Non-Toxic
same,Activity,[34],Non-Toxic
same,Activity,[35],Non-Toxic
